Assay results taken from patent publication US20180369327A1, “METHOD FOR TREATING OR PREVENTING OSTEOARTHRITIS” (Dong-A University Research Foundation for Industry-Academy …, priority 2017, published 2018).

How the values were obtained:
[1] = tested on: rat articular chondrocytes; assay: DNA hypoploidy / cell cycle analysis by flow cytometry (apoptosis); format: cell-based; conditions: 30 μM cilostazol, 1.5 mM oleate; n=4
Method: Rat articular chondrocytes for primary culture were isolated from knee joint cartilage slices by enzymatic digestion for 1 h with 0.2% type II collagenase (381 units/mg) in DMEM. After the isolated cells were collected by brief centrifugation, they were resuspended in DMEM supplemented with 10% (v/v) FBS, […] streptomycin and 50 units/ml penicillin (Gibco). The cells were plated on culture dishes at a density of 5×10^4 cells/cm^2. The medium was replaced every 2 days, and they reached confluence after approximately 5 days in culture. In each experiment, the cells from three animals were pooled and analyzed three times. FFA were dissolved in absolute ethanol at a concentration of 500 mM and diluted to final concentrations of FFAs with the appropriate concentration of 1% (w/v) FFA-free BSA. Controls were incubated with equal concentrations of FFA-free BSA containing ethanol. […] Cells were washed twice with PBS, and fixed with cold 70% ethanol at 4° C. overnight. The fixed cells were pelleted and ethanol was removed by washing twice with PBS containing 1% bovine serum albumin (BSA). The cells were resuspended in 1 ml of PBS containing 11 Kunitz U/ml RNase A, incubated at 4° C. for 30 min and washed once with BSAPBS. Cells were resuspended in PI solution (50 μg/ml) and incubated at 37° C. for 30 min in dark. […]

[2] = tested on: lipid droplets (LD) in rat articular chondrocytes; assay: Lipid droplet staining (Nile red, BODIPY), confocal microscopy and quantification; format: cell-based
Method: Rat articular chondrocytes for primary culture were isolated from knee joint cartilage slices by enzymatic digestion for 1 h with 0.2% type II collagenase (381 units/mg) in DMEM. After the isolated cells were collected by brief centrifugation, they were resuspended in DMEM supplemented with 10% (v/v) FBS, […] streptomycin and 50 units/ml penicillin (Gibco). The cells were plated on culture dishes at a density of 5×10^4 cells/cm^2. The medium was replaced every 2 days, and they reached confluence after approximately 5 days in culture. In each experiment, the cells from three animals were pooled and analyzed three times. FFA were dissolved in absolute ethanol at a concentration of 500 mM and diluted to final concentrations of FFAs with the appropriate concentration of 1% (w/v) FFA-free BSA. Controls were incubated with equal concentrations of FFA-free BSA containing ethanol. […] Cells cultured on a coverslip were incubated with diluted Nile red or BODIPY 493/503. Some sections were double-labelled with TUNEL and BODIPY 493/503 and counterstained with Hoechst 33342. Fluorescence images were observed and analyzed using a Zeiss LSM 510 laser-scanning confocal microscope (Goettingen, Germany). Twenty cells from each experiment were observed and auantification of fluorescence intensity of the confocal images were obtained with the use of ImageJ software. Fluorescence intensity was expressed as AU.

[3] = tested on: rat articular chondrocytes; assay: Cell viability assay (automated trypan blue exclusion); format: cell-based; conditions: n=4
Method: Rat articular chondrocytes for primary culture were isolated from knee joint cartilage slices by enzymatic digestion for 1 h with 0.2% type II collagenase (381 units/mg) in DMEM. After the isolated cells were collected by brief centrifugation, they were resuspended in DMEM supplemented with 10% (v/v) FBS, […] streptomycin and 50 units/ml penicillin (Gibco). The cells were plated on culture dishes at a density of 5×10^4 cells/cm^2. The medium was replaced every 2 days, and they reached confluence after approximately 5 days in culture. In each experiment, the cells from three animals were pooled and analyzed three times.
FFA were dissolved in absolute ethanol at a concentration of 500 mM and diluted to final concentrations of FFAs with the appropriate concentration of 1% (w/v) FFA-free BSA. Controls were incubated with equal concentrations of FFA-free BSA containing ethanol. To examine the effect of several chemicals, cells were pretreated with 150 μg/mL DRB or 30 μM cilostazol for 24 h or 25 ng/ml TNF-α for 3 h before FFA treatment.
siRNA transfection or combination treatment with FFAs. Transfection of siRNA was performed with the use of siPORT Amine and Opti-MEM media. Cells grown to a confluence of 40% to 50% in six-well plates were transfected with 100 nM final siRNA concentration per well. Transfection mixture was added to each well, and incubation occurred for 4 h. Then 2 ml of growth medium was added, and cells were incubated for another 20 h. After siRNA transfection medium was removed, each well was washed in PBS solution. Cells were treated with FFAs for 24 hours.
Recombinant adenoviral STAMP2 was prepared as described previously34. Cells (1×10^7) were infected with recombinant adenoviral STAMP2 at multiplicities of infection (MOI) of 500, 1000 and 1500 to the medium.
An automated trypan blue exclusion assay was undertaken. Total cells and trypan bluestained (i.e., nonviable) cells were counted, and the percentage of nonviable cells was calculated using the Vi-Cell cell counter (Beckman Coulter, Miami, Fla., USA).

[4] = tested on: HFD-induced cartilage destruction; assay: HFD-induced OA mouse model, histologic examination of cartilage; format: in vivo; conditions: mice fed HFD 25 weeks, cilostazol 30 mg/kg/day orally for the last 10 weeks; n=10
Method: All procedures for animal study were approved by the Committee on Animal Investigations at Dong-A University (DIACUC-15-12). Seven-week-old male C57BL/6 mice were obtained from Samtoko (Osan, Korea). Mice were maintained in a temperature-controlled room (22° C.) on a 12:12 h light-dark cycle and free access to water and food. HFD-induced OA mouse model. Sixty mice were fed a normal chow diet for one week and then mice were fed an HFD or a SD for 25 weeks. Ten mice from each diet were used histologically examine the effect of high fat diet. Forty mice were used to examine the effect of cilostazol. Mice fed a SD or HFD for 15 weeks were orally administered cilostazol at concentrations of 30 mg/kg/day for additional 10 weeks. SD+vehicle mice (n=10) were fed a SD and received DMSO. SD+cilostazol mice (n=10) were fed a SD and received cilostazol. HFD+vehicle mice (n=10) were fed a HFD and received DMSO. HFD+cilostazol mice (n=10) were fed a HFD and received cilostazol. Tissue preparation and histologic examination. Animals were killed by ether inhalation. Whole knee joints were removed by dissection, fixed in PBS (pH 7.4) containing 4% paraformaldehyde, decalcified in 12.5% EDTA, dehydrated, and embedded in paraffin blocks. Five-micrometer microsections were prepared and stained with hematoxylin and eosin and with Safranin O-fast green.

## O=C1CCc2cc(OCCCCc3nnnn3C3CCCCC3)ccc2N1 [cilostazol]
[1]
  effect on oleate-induced apoptosis (histograms): prevented 1.5 mM oleate-induced apoptosis
[2]; 30 μM cilostazol, 1.5 mM oleate
  LD size and LD accumulation: increases LD size and LD accumulation
[2]; cilostazol in cells treated with 0.4 mM oleate and 1.6 mM palmitate
  LD accumulation: augmented the LD accumulation
[2]; cilostazol versus 1.5 mM oleate alone, n=4
  total LD volume: significantly increased
[2]; cilostazol, 1.5 mM oleate, n=4
  oleate-induced LD fragmentation: prevented oleate-induced LD fragmentation
[3]; 0.4 mM oleate with 0.6 or 1.6 mM palmitate
  influence on lipotoxicity of oleate/palmitate combination (viability): reciprocal influences on lipotoxicity
[3]; cilostazol pre-treatment, 1.5 mM oleate
  effect on oleate-induced cell death (viability): prevented 1.5 mM oleate-induced cell death
[4]
  HFD-induced cartilage destruction: markedly prevented the HFD-induced cartilage destruction
